{"source": "ChEMBL document CHEMBL1909046", "about": "“DrugMatrix in vitro pharmacology data”", "key": {"[1]": {"assay": "DRUGMATRIX: Sodium/nucleoside co-transporter radioligand binding (ligand: nitrobenzylthioinosine)", "type": "cell membranes, Cavia porcellus, Dunkin-Hartley, Cerebral cortex, Membrane", "settings": "Not Active = under 50% inhibition at 10 µM"}, "[2]": {"target": "T1, Alpha-1B adrenergic receptor (Rattus norvegicus, UniProt P15823)", "T1 sequence (P15823 whole entry)": "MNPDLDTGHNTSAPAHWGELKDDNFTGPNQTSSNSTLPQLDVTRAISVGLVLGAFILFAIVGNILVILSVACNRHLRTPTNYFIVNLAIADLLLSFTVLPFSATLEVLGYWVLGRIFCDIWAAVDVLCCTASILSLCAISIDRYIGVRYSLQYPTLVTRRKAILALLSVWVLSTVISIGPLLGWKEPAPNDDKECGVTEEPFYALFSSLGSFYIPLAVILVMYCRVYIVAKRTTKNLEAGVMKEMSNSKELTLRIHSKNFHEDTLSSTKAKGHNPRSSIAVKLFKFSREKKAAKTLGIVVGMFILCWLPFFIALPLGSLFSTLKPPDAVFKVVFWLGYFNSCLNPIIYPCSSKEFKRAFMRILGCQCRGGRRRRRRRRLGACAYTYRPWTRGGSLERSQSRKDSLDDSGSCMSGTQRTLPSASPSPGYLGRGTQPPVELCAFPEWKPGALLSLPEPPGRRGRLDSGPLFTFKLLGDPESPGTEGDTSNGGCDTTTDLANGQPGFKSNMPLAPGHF", "assay": "DRUGMATRIX: Alpha-1B adrenergic receptor radioligand binding (ligand: prazosin)", "type": "cell membranes, Wistar, Liver, Membrane", "settings": "Not Active = under 50% inhibition at 10 µM"}, "[3]": {"assay": "DRUGMATRIX: Calcium Channel Type L, Benzothiazepine radioligand binding (ligand: [3H] Diltiazem)", "type": "cell membranes, Rattus norvegicus, Wistar, Brain, Membrane", "settings": "Not Active = under 50% inhibition at 10 µM"}, "[4]": {"assay": "DRUGMATRIX: Glutamate, NMDA, Agonism radioligand binding (ligand: [3H] CGP-39653)", "type": "cell membranes, Rattus norvegicus, Wistar, Cerebral cortex, Membrane", "settings": "Not Active = under 50% inhibition at 10 µM"}, "[5]": {"assay": "DRUGMATRIX: Glutamate, NMDA, Phencyclidine radioligand binding (ligand: [3H] TCP)", "type": "cell membranes, Rattus norvegicus, Wistar, Cerebral cortex, Membrane", "settings": "Not Active = under 50% inhibition at 10 µM"}, "[6]": {"assay": "DRUGMATRIX: Purinergic P2X radioligand binding (ligand: [3H] alpha, beta-Methylene-ATP)", "type": "cell membranes, Oryctolagus cuniculus, New Zealand albino, Urinary bladder, Membrane", "settings": "Not Active = under 50% inhibition at 10 µM"}, "Cytochrome P450 2C19": {"target": "Cytochrome P450 2C19 (Homo sapiens, UniProt P33261)", "sequence (P33261 whole entry)": "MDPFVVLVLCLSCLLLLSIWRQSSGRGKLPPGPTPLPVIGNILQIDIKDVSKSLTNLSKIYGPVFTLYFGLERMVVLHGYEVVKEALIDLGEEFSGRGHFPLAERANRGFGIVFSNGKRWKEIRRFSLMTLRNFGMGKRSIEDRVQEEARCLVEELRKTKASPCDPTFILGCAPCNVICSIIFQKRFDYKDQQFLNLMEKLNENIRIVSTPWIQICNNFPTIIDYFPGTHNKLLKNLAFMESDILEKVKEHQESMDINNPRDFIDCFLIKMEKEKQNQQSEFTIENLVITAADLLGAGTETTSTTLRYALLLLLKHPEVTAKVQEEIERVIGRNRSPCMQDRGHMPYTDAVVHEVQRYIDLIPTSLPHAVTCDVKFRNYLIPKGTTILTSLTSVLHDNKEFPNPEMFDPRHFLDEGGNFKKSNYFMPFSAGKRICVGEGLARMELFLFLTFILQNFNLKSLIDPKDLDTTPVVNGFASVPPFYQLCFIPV", "settings": "bti-tn-5b1-4"}, "Glucocorticoid receptor": {"target": "T2, Glucocorticoid receptor (Homo sapiens, UniProt P04150)", "T2 sequence (P04150 whole entry)": "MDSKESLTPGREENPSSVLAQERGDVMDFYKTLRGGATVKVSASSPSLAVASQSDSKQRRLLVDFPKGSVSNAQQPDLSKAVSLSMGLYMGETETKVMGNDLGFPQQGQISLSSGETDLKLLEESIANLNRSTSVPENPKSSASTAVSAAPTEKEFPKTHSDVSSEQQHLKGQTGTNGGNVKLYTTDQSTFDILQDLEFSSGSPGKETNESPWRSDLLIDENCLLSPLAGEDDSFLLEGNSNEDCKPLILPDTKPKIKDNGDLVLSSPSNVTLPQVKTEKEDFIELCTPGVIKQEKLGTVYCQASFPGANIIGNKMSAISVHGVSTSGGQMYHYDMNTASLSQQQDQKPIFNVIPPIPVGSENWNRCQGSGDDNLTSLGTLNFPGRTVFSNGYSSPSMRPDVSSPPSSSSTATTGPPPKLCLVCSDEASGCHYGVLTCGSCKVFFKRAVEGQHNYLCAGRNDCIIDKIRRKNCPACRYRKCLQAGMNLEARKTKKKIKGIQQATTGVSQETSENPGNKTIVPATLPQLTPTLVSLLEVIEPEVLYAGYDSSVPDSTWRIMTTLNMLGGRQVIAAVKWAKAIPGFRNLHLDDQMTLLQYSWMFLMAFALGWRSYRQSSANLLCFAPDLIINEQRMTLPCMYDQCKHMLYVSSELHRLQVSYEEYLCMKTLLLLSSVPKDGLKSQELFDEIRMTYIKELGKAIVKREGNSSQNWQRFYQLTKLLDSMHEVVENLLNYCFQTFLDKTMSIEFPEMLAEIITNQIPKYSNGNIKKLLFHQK", "settings": "hela s3"}}}
{"compound": "CCCCCCCCNC(C)C(O)c1ccc(SC(C)C)cc1", "note": "(stereo not given) [SULOCTIDIL]", "values": [{"measurement": "IC50", "setting": "[1]", "value": "Not Active"}, {"measurement": "Ki", "setting": "[1]", "value": "Not Active"}, {"measurement": "IC50", "setting": "[2]", "value": "Not Active"}, {"measurement": "IC50", "setting": "[3]; read-out: IC50", "value": 0.171, "unit": "µM"}, {"measurement": "Ki", "setting": "[3]; read-out: Ki", "value": 0.152, "unit": "µM"}, {"measurement": "IC50", "setting": "[4]", "value": "Not Active"}, {"measurement": "Ki", "setting": "[4]", "value": "Not Active"}, {"measurement": "IC50", "setting": "[5]", "value": "Not Active"}, {"measurement": "Ki", "setting": "[5]", "value": "Not Active"}, {"measurement": "IC50", "setting": "[6]", "value": "Not Active"}, {"measurement": "Ki", "setting": "[6]", "value": "Not Active"}, {"measurement": "IC50", "setting": "Cytochrome P450 2C19", "value": "Not Active"}, {"measurement": "Ki", "setting": "Cytochrome P450 2C19", "value": "Not Active"}, {"measurement": "IC50", "setting": "Glucocorticoid receptor", "value": "Not Active"}]}
{"compound": "CC(=O)OCC(COC(C)=O)OC(C)=O", "note": "[TRIACETIN]", "values": [{"measurement": "IC50", "setting": "[1]", "value": "Not Active"}, {"measurement": "Ki", "setting": "[1]", "value": "Not Active"}, {"measurement": "IC50", "setting": "[2]", "value": "Not Active"}, {"measurement": "IC50", "setting": "[3]", "value": "Not Active"}, {"measurement": "Ki", "setting": "[3]", "value": "Not Active"}, {"measurement": "IC50", "setting": "[4]", "value": "Not Active"}, {"measurement": "Ki", "setting": "[4]", "value": "Not Active"}, {"measurement": "IC50", "setting": "[5]", "value": "Not Active"}, {"measurement": "Ki", "setting": "[5]", "value": "Not Active"}, {"measurement": "IC50", "setting": "[6]", "value": "Not Active"}, {"measurement": "Ki", "setting": "[6]", "value": "Not Active"}, {"measurement": "IC50", "setting": "Cytochrome P450 2C19", "value": "Not Active"}, {"measurement": "Ki", "setting": "Cytochrome P450 2C19", "value": "Not Active"}, {"measurement": "IC50", "setting": "Glucocorticoid receptor", "value": "Not Active"}]}
{"compound": "TRANSPLATIN", "values": [{"measurement": "IC50", "setting": "[1]", "value": "Not Active"}, {"measurement": "Ki", "setting": "[1]", "value": "Not Active"}, {"measurement": "IC50", "setting": "[2]", "value": "Not Active"}, {"measurement": "Ki", "setting": "[2]", "value": "Not Active"}, {"measurement": "IC50", "setting": "[3]", "value": "Not Active"}, {"measurement": "Ki", "setting": "[3]", "value": "Not Active"}, {"measurement": "IC50", "setting": "[4]", "value": "Not Active"}, {"measurement": "Ki", "setting": "[4]", "value": "Not Active"}, {"measurement": "IC50", "setting": "[5]", "value": "Not Active"}, {"measurement": "Ki", "setting": "[5]", "value": "Not Active"}, {"measurement": "IC50", "setting": "[6]", "value": "Not Active"}, {"measurement": "Ki", "setting": "[6]", "value": "Not Active"}, {"measurement": "IC50", "setting": "Cytochrome P450 2C19", "value": "Not Active"}, {"measurement": "Ki", "setting": "Cytochrome P450 2C19", "value": "Not Active"}, {"measurement": "IC50", "setting": "Glucocorticoid receptor", "value": "Not Active"}, {"measurement": "Ki", "setting": "Glucocorticoid receptor", "value": "Not Active"}]}
{"compound": "ZIRCONIUM(IV) CHLORIDE", "values": [{"measurement": "IC50", "setting": "[1]", "value": "Not Active"}, {"measurement": "Ki", "setting": "[1]", "value": "Not Active"}, {"measurement": "IC50", "setting": "[2]", "value": "Not Active"}, {"measurement": "Ki", "setting": "[2]", "value": "Not Active"}, {"measurement": "IC50", "setting": "[3]", "value": "Not Active"}, {"measurement": "Ki", "setting": "[3]", "value": "Not Active"}, {"measurement": "IC50", "setting": "[4]", "value": "Not Active"}, {"measurement": "Ki", "setting": "[4]", "value": "Not Active"}, {"measurement": "IC50", "setting": "[5]", "value": "Not Active"}, {"measurement": "Ki", "setting": "[5]", "value": "Not Active"}, {"measurement": "IC50", "setting": "[6]", "value": "Not Active"}, {"measurement": "Ki", "setting": "[6]", "value": "Not Active"}, {"measurement": "IC50", "setting": "Cytochrome P450 2C19", "value": "Not Active"}, {"measurement": "Ki", "setting": "Cytochrome P450 2C19", "value": "Not Active"}, {"measurement": "IC50", "setting": "Glucocorticoid receptor", "value": "Not Active"}, {"measurement": "Ki", "setting": "Glucocorticoid receptor", "value": "Not Active"}]}
